Assay: xn = mol fraction of the nth substance listed
Details: 373.2 K, Liquid; for mass density: Vibrating tube method; for viscosity: Moving piston method

CCCCCCCCCC [decane] + CCCCCCCCCCCCCC
x1 = 1
Details	mass density [kg/m3]
100 kPa	667.1
1000 kPa	668.4
2000 kPa	669.6
3000 kPa	670.9
4000 kPa	672.1
5000 kPa	673.4
6000 kPa	674.5
7000 kPa	675.7
8000 kPa	676.9
9000 kPa	678.1
10000 kPa	679.2

CCCCCCCCCC [decane] + O=C=O
Details	mass density [kg/m3]	viscosity [mPa·s]
1120 kPa, x2 = 0.075	669	0.35
1950 kPa, x2 = 0.124	671	0.33
3040 kPa, x2 = 0.192	672	0.29
4010 kPa, x2 = 0.246	674	0.27
5110 kPa, x2 = 0.313	676	0.25
6190 kPa, x2 = 0.367	677	0.22

CCCCCCCCCCCCCC [tetradecane] + CCCCCCCCCC
mass density [kg/m3]
Details	x2 = 0	x2 = 0.25	x2 = 0.5	x2 = 0.75
100 kPa	705.4	697.8	689.1	679.1
1000 kPa	706.5	698.8	690.3	680.3
2000 kPa	707.6	699.9	691.5	681.6
3000 kPa	708.6	701	692.6	682.7
4000 kPa	709.6	702	693.7	683.9
5000 kPa	710.7	703.1	694.8	685.1
6000 kPa	711.6	704.1	695.9	686.2
7000 kPa	712.6	705.2	697	687.3
8000 kPa	713.6	706.2	698	688.4
9000 kPa	714.6	707.2	699	689.5
10000 kPa	715.5	708.2	700.1	690.6

CCCCCCCCCCCCCC [tetradecane] + O=C=O
Details	mass density [kg/m3]	viscosity [mPa·s]
960 kPa, x2 = 0.07	707	0.6
2000 kPa, x2 = 0.135	709	0.55
2970 kPa, x2 = 0.198	710	0.51
4000 kPa, x2 = 0.261	711	0.47
4920 kPa, x2 = 0.307	713	0.44
5970 kPa, x2 = 0.358	714	0.41
